From patent publication US20200087703A1, “METABOLIC LABELING OF BACTERIAL TEICHOIC ACIDS CELL WALL” (priority 2017, published 2020)

Columns and labels:
[1] = test system: S. pneumoniae R800; settings: C-medium without choline, 30 μM
Method: FIG. 15. […] In C-medium without choline (*), with 30 μM azidocholine (†) or choline (‡).
(§1) The choice was oriented towards a rapid click reaction involving an azide function carried by the choline and the strained dibenzoannulated cyclooctyne DIBO carrying the fluorophore. […] For subsequent click reaction, fluorescent DIBO offers a compromise between stability and rapidity with a choice of commercially available fluorophores.

[2] = test system: S. pneumoniae; settings: grown 4 hours with 30 μM, then 25 μM DIBO Alexa Fluor 5 min
Text: as §1

[3] = test system: S. pneumoniae; settings: 15 seconds incubation, then DIBO-ATTOS 488 for 5 min
Method: The reaction is stopped by three washes with 1 ml of cold PBS. The bacterium is then re-suspended in 20-40 μl of PBS and observed immediately by fluorescence microscopy.

[4] = test system: S. pneumoniae live cells; assay: TA metabolic labeling on pneumococcal live cells (CuAAC with coumarin, fluorescence microscopy); type: cell-based, Streptococcus pneumoniae; settings: copper 50 μM, THPTA, 30 min, five independent experiments
Text: FIG. 10. TA metabolic labeling on pneumococcal live cells. A. Detection of metabolically incorporated propargyl-choline in S. pneumoniae living cells after bioorthogonal reaction. (i) and (ii) refer to two different stages of division. Membrane and septal TA labeling are indicated by black and white arrow heads, respectively. Phase contrast and fluorescence images in the presence (left panel) or absence of propargyl-choline (right panel) are shown. Scale bar=1 μm. B. Electron micrographs of pneumococcal cells at division stages (i) and (ii) as shown in A. C.
For bioorthogonal reactions, 10 ml of Cmed-choline and 10 ml of C-medium containing 4 μg/ml of propargyl-choline were inoculated at OD600 nm of 0.05 with aliquots of cells conditioned in C-medium as described above. The growth was pursued at 37° C.-5% CO2 for 3 hours until OD600 nm of 0.2-0.25 was reached, which corresponds to the early exponential growth phase. […]
Pneumococcal cells were transferred to microscope slides and observed using an Olympus BX61 optical microscope equipped with a UPFLN 100× O-2PH/1.3 objective and a QImaging Retiga-SRV 1394 cooled charge-coupled device camera. […] The cells are then sorted by their length value and the fluorescence values are plotted as a heat map. […]

Molecule	ability to replace choline for growth [1]	cell surface labeling pattern [2]	labeling quality after short pulse [3]	fluorescent signal ratio propargyl-choline/choline [4]
1-azidoethyl-choline	efficiently replaced choline to allow growth	Uniform cell surface labeling	high-quality labeling	–
C#CC[N+](C)(C)CCO [propargyl-choline]	–	–	–	4.28±0.8
